Here are results for four compounds from patent US11576894B2, “Combination therapy for the treatment of diabetes” (Janssen Pharmaceutica N.V., priority 2009, dated 2023).

Where a name gives a salt, the structure may show the parent alone.

One experiment relates to Male ob/ob mice. Briefly: In vivo ob/ob mouse study: 22 days oral q.d., glucose, OGTT, plasma insulin, body weight. The settings on record: for Body Weight / Fed Glucose / Plasma Insulin: 22 days; for Blood Glucose AUC during OGTT: OGTT day 18, glucose 0.5 g/kg. On the procedure:
The mice were allowed ad libitum access to water and chow (commercially supplied diet). […] On the first morning, the mice were grouped as noted above and fed glucose. […] Body weight, food intake and fed blood glucose levels were measured weekly. An oral glucose tolerance test (OGTT) was conducted on the mice on day 18, after overnight fasting. […] Following completion of the study, final body weight and blood glucose level of were collected and the mice in each group was sacrificed to collect blood for biochemistry analysis, including fed blood glucose levels, fasted blood glucose levels, blood glucose levels during OGTT, plasma insulin and body weight change.

For experiment [1], the system named is Male C57BL/6 mice (high fat diet, Steptozotocin). Briefly: In vivo mouse study: high fat diet / STZ C57BL/6 mice, 3 weeks oral treatment, fed and fasted glucose, OGTT. The note with it: for Fed Glucose / Fed Glucose (% relative to the Vehicle): 3 weeks; for Blood Glucose AUC during OGTT / Blood Glucose AUC during OGTT (% relative to the Vehicle): glucose 2 g/kg; for Fasted Glucose / Fasted Glucose (% relative to the Vehicle): overnight fast from day 18. From the text:
All the mice were then kept on a high fat diet for another 3 weeks. […] At the start of the pre-dose period, each mouse was assigned a predose number, which was indicated on its cage card. After assignment to dosage groups, each mouse was assigned a unique study identification number (which will be indicated on its cage card) and identified by permanent marker on its tail. Mice were housed 5 mice per cage in stainless steel cages. […] The temperature and humidity ranges will be monitored by a hygrothermograph. Mice were fed ad libitum (except where noted) with high-fat diet prepared in Southern University. Water was provided ad libitum by water bottles. The quarantine period was 5 days. The test compound or vehicle was administered orally by gavage. The dosage levels were chosen to represent a range of exposures with pharmacology effects. […] The mice were randomly divided into six testing group of 10 mice per group. Each group was treated for 3 weeks, via oral administration, with one of the following regimens: (a) vehicle; […] On Day 1 (the first day of dosing), dosing at all dose levels was initiated. All groups were then dosed for 20 additional days. The following pharmacological parameters were measured during and at the end of this study: […] The following morning, a basal fasted blood glucose level was determined. […] Food was replaced after the last time point of blood glucose measurement. The pharmacological significance of any findings was determined based on statistical analysis and historical control data. Statistical analyses were performed utilizing GraphPadPRISM.

Setting [2] is: Metformin HCl 250 mg/kg P.O. q.d.

Take `CN(C)C(=N)N=C(N)N` [Metformin, reference compound]: in the experiment on Male ob/ob mice (250 mg/kg), the “effect on blood glucose control (result in words)” value is recorded as “did not have an effect”. Further, in experiment [1] (Metformin 500 mg/kg oral), the “Fed Glucose” value turned out to be 345.4 ± 28.4 mg/dL, the “Fed Glucose (% relative to the Vehicle)” value is on record as 82% ± 7%, the “Blood Glucose AUC during OGTT” value is given as 34023 ± 1618 mg/dL * 2 h and the “Blood Glucose AUC during OGTT (% relative to the Vehicle)” value is 92% ± 4%. Also, in experiment [1] (Metformin 500 mg/kg oral), the “Fasted Glucose” value is 74.7 ± 3.8 mg/dL and the “Fasted Glucose (% relative to the Vehicle)” value is 85.9% ± 4.4%.

Take `OC[C@H]1O[C@@H](c2ccc(Cl)c(Cc3ccc(-c4ccc(F)nc4)s3)c2)[C@H](O)[C@@H](O)[C@@H]1O` [Cmpd (I-Y)]: in experiment [1] (Cmpd (I-Y) 1 mg/kg oral), the “Fed Glucose” value is 360.7 ± 15.7 mg/dL, the “Fed Glucose (% relative to the Vehicle)” value is on record as 86% ± 4%, the “Blood Glucose AUC during OGTT” value was found to be 31562 ± 1447 mg/dL * 2 h and the “Blood Glucose AUC during OGTT (% relative to the Vehicle)” value is 85% ± 4%. Also, in experiment [1] (Cmpd (I-Y) 1 mg/kg oral), the “Fasted Glucose” value is listed as 77.8 ± 4.9 mg/dL and the “Fasted Glucose (% relative to the Vehicle)” value was 89.4% ± 5.7%. Also, in experiment [1] (Cmpd (I-Y) 10 mg/kg oral), the “Fed Glucose” value is 290.5 ± 24.8 mg/dL, the “Fed Glucose (% relative to the Vehicle)” value was 69% ± 6%, the “Blood Glucose AUC during OGTT” value was 25209 ± 894 mg/dL * 2 h and the “Blood Glucose AUC during OGTT (% relative to the Vehicle)” value is listed as 68% ± 2%. Further, in experiment [1] (Cmpd (I-Y) 10 mg/kg oral), the “Fasted Glucose” value is 66.9 ± 3.1 mg/dL and the “Fasted Glucose (% relative to the Vehicle)” value is listed as 76.9% ± 3.6%.

In the case of `Cc1ccc([C@@H]2O[C@H](CO)[C@@H](O)[C@H](O)[C@H]2O)cc1Cc1ccc(-c2ccc(F)cc2)s1` [Cmpd (I-X)], in the experiment with Male ob/ob mice (10 mg/kg), the “blood glucose levels (result in words)” value was “significantly reduced” and the “glucose excursion during OGTT (result in words)” value is “improved”. Further, in the experiment on Male ob/ob mice (Cmpd (I-X) 1 mg/kg P.O. q.d.), the “Fasted Glucose” value was 159 ± 12 mg/dL, the “Body Weight” value stood at 53 ± 0.8 g, the “Fed Glucose” value is 312 ± 34 mg/dL and the “Plasma Insulin” value is reported as 46.3 ± 3.5 ng/dL. Further, the “Blood Glucose AUC during OGTT” value in the experiment on Male ob/ob mice (Cmpd (I-X) 1 mg/kg P.O. q.d.) is 80 ± 4 mg/dL * 2 h. Also, in the experiment on Male ob/ob mice (Cmpd (I-X) 10 mg/kg P.O. q.d.), the “Fasted Glucose” value is 86 ± 4 mg/dL, the “Body Weight” value amounted to 54 ± 0.8 g, the “Fed Glucose” value amounted to 254 ± 22 mg/dL and the “Plasma Insulin” value is 44.0 ± 3.6 ng/dL. The “Blood Glucose AUC during OGTT” value with Male ob/ob mice (Cmpd (I-X) 10 mg/kg P.O. q.d.) turned out to be 48 ± 3 mg/dL * 2 h.

In the case of `CN(C)C(=N)N=C(N)N` [Metformin HCl, metformin hydrochloride, reference compound], in the experiment on Male ob/ob mice (setting [2]), the “Fasted Glucose” value came out at 166 ± 16 mg/dL, the “Body Weight” value is given as 52 ± 0.9 g, the “Fed Glucose” value amounted to 371 ± 35 mg/dL and the “Plasma Insulin” value is listed as 48.4 ± 2.0 ng/dL. Also, the “Blood Glucose AUC during OGTT” value in the experiment with Male ob/ob mice (setting [2]) is reported as 91 ± 9 mg/dL * 2 h.
